Experimental data: publication PMC8908514 (ACS Omega, 2022)

Legend:
[1] = Experimental complexation with iron; assay type: binding; conditions: ligand–iron(III), stoichiometry 1, text
[2] = In vitro hemolysis on human red blood cells; assay type: cell-based; conditions: red blood cells (2% final suspension), % Haemolysis
P. berghei ANKA = experiment: Four day suppressive test in P. berghei-infected mice; assay type: in vivo, P. berghei (BALB/c mice)

- binding constant [1]: about 6300 M^–1
Structure (SMILES): CCN(CC)CCCC(C)Nc1ccnc2cc(Cl)ccc12 (stereo not shown) [CQ, chloroquine]
- hemolysis at 45 min, 1 mM [2]: 7.4%
- parasitemia reduction percentage (P. berghei ANKA; 20 mg kg^–1, day 4): 99.80%
- %P, percentage of parasitemia (P. berghei ANKA; 20 mg kg^–1 for 4 days, day 4 post-infection, n = 6): 0.2%
